Legend:
Zein = Zein irritation score (in vitro mildness); conditions: the lower the score, the more mild
Method: To evaluate the mildness of the products of the present invention, Zein scores were determined for a variety of sulfate and isethionate surfactants and their scores are reported in Table III:
The lower the Zein score, the more mild the composition.

[1] = levels of 10% by weight; cited from earlier work
[2] = Foaming test, one-liter capped rotating measuring cylinder foam machine; type: physicochemical; conditions: FIGS. 1A and 1B; 0.5% active of surfactant; compared with SLES or SLS based cleansers
Method: Foaming tests were performed using a one-liter capped rotating measuring cylinder foam machine at a rate of 30 revolutions per minute and ambient temperature ranging from about 20° C. to about 22° C. and at a concentration of 0.5% of total surfactants. Foam heights in the graduated cylinder were measured at the start and at 10 minutes of rotation. The results are shown below in Table I:
A second foaming test was performed using the same parameters as above, but a stripped coco fatty acid chain SCMI was tested in place of a whole coco fatty acid chain SCMI.

Molecule | Zein Score (Zein) | skin and eye irritancy [1] | foam appearance [2]
CCCCCCCCCCCC(=O)OC(C)CS(=O)(=O)[O-].[Na+] (centres unmarked) [Sodium Lauroyl Methyl Isethionate] | 134 mg N/100 ml solution |  | 
CCCCCCCCCCCCOS(=O)(=O)[O-].[Na+] [Sodium Lauryl Sulfate, sodium lauryl sulfate, reference compound] | 527 mg N/100 ml solution |  | 
Sodium Cocoyl Ethyl Isethionate | 104 mg N/100 ml solution |  | 
Sodium Lauroyl Ethyl Isethionate | 187 mg N/100 ml solution |  | 
sodium cocoyl isethionate [reference compound] | 254 mg N/100 ml solution | non-skin irritant and eye irritant | 
sodium cocoyl methyl isethionate | 147 mg N/100 ml solution |  | tighter and creamier

Source: patent US8105993B2, “Process compositions and production of acyl alkylisethionate compositions” (Huntsman Petrochemical LLC, priority 2006, dated 2012)
